Laboratory results taken from patent US9096608B2, “Pharmaceutically active pyrazolo-triazine derivatives” (LEAD DISCOVERY CENTER GMBH, priority 2012, dated 2015).

How the values were obtained:
Assay type in all cases: biochemical
[1] = molecular target: T1, CDK7/CycH/Mat1 (Homo sapiens, UniProt P50613); experiment: CDK7 Enzymatic Activity Assay (Lance Kinase Activity Assay, FRET); conditions: Table 5A; 25 μM ATP final; read-out: CDK7: IC50 [mM] for CDK7 inhibition (the above defined ranges apply)
T1 construct: purchased Carna
T1 sequence (P50613 whole entry): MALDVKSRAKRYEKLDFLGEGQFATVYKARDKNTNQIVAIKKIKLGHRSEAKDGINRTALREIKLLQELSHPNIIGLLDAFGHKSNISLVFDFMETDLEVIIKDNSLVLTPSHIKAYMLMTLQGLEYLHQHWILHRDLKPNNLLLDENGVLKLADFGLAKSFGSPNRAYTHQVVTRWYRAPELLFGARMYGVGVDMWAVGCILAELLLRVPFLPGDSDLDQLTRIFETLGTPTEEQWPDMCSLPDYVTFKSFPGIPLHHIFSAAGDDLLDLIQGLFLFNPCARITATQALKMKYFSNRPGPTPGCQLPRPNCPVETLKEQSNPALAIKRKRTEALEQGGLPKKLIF
T1 sequence (P51946 whole entry partner): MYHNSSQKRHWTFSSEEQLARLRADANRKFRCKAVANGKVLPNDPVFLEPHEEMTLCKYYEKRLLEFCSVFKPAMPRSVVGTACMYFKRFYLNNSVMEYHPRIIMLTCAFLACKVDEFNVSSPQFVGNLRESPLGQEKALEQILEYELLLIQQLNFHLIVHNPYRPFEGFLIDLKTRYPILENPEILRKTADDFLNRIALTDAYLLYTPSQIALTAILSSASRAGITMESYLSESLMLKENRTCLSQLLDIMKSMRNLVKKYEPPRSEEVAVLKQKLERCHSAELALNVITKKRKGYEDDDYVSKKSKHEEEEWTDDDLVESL
T1 sequence (P51948 whole entry partner): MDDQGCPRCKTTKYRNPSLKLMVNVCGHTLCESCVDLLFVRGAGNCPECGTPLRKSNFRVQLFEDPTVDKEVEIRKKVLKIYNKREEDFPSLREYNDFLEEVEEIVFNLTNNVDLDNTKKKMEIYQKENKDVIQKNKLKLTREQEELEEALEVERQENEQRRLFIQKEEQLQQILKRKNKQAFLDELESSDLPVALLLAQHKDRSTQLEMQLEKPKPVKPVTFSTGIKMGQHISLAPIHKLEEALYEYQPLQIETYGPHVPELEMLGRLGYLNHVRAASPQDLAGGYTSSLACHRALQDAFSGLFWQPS
Summary of the method: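 TR-FRET (LANCE) kinase assay with ULight-MBP peptide substrate and Eu-labelled anti-phospho antibody; compounds in 8-point 1:3 series in HEPES 50 mM pH 7.5, MgCl2 10 mM, EGTA 1 mM, DTT 2 mM, 0.01% Tween-20.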

[2] = molecular target: T2, CDK2/CycA (Homo sapiens, UniProt P24941); experiment: CDK2 Enzymatic Activity Assay (Lance Kinase Activity Assay, FRET); conditions: Table 5B; symbols per IC50 ranges of b615
T2 construct: purchased Proqinase
Summary of the method: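 Compounds serially diluted 1:3 over 8 steps, run with CDK2/CycA, ULight-MBP substrate and ATP in HEPES pH 7.5 buffer for 1 h at room temperature. LANCE TR-FRET detection with Eu-anti-phospho-MBP after EDTA stop; IC50 from sigmoidal dose-response curves.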

[3] = molecular target: T3, CDK9/Cyclin T1 (Homo sapiens, UniProt P50750); experiment: CDK9 Enzymatic Activity Assay (Lance Kinase Activity Assay, FRET); conditions: Table 5B; symbols per IC50 ranges of b615
T3 construct: purchased Invitrogen
T3 sequence (P50750 whole entry): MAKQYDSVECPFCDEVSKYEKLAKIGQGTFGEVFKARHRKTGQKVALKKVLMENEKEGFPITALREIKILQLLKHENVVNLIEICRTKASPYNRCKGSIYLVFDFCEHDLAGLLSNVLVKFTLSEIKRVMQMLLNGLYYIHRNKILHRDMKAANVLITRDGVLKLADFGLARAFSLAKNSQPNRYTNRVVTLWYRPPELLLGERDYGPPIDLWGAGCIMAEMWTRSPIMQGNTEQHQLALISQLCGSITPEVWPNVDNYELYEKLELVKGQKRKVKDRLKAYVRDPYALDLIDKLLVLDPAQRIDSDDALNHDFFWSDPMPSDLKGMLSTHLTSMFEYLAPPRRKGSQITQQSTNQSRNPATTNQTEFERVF
T3 sequence (O60563 whole entry partner): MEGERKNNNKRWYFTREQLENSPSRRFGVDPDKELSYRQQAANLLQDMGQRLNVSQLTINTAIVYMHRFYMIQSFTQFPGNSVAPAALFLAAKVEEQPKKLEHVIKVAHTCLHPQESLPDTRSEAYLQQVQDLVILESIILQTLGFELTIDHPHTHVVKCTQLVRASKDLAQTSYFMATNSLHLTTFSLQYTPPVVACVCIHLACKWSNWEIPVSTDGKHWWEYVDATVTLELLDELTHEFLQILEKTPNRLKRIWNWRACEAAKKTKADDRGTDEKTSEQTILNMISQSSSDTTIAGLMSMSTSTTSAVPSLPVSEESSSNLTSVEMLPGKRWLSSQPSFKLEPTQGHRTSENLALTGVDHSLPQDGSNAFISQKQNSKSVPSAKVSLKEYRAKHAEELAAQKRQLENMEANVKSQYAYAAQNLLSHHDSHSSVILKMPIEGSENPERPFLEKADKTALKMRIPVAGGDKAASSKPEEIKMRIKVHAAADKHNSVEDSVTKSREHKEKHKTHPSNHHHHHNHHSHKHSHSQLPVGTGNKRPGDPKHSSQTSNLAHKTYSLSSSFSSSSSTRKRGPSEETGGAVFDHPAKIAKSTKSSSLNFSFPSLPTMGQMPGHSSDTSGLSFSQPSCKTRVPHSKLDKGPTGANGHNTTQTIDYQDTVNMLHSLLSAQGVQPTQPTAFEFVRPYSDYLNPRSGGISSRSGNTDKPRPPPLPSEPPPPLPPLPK
Summary of the method: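 TR-FRET detection of ULight-MBP substrate phosphorylation by CDK9/cyclin T1 using a Eu-anti-phospho-MBP antibody, in 50 mM HEPES pH 7.5, 10 mM MgCl2, 1 mM EGTA, 2 mM DTT, 0.01% Tween-20. Kinase reaction 1 h at room temperature, then EDTA detection buffer for 1 h before reading.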

| Structure (SMILES) | IC50 [1] [mM] | CDK2 IC50 range class [2] | CDK9: Selectivity of CDK7 inhibition over CDK9 inhibition [fold] [3] |
| --- | --- | --- | --- |
| COc1cccc([C@H](C)Nc2nc(C(=O)N(C)CCN3CCOCC3)nc3c(C(C)C)cnn23)c1 [(XXVI-2), (S)-8-isopropyl-4-((1-(3-methoxyphenyl)ethyl)amino)-N-methyl-N-(2-morpholinoethyl)pyrazolo[1,5-a][1,3,5]triazine-2-carboxamide] | > 0.0001 | +++ (IC50>2500 nM) | +++ (IC50>2500 nM) |
| COc1cccc([C@H](C)Nc2nc(C(=O)N3CCNCC3)nc3c(C(C)C)cnn23)c1 [(XXVI-4), (S)-(8-isopropyl-4-((1-(3-methoxyphenyl)ethyl)amino)pyrazolo[1,5-a][1,3,5]triazin-2-yl)(piperazin-1-yl)methanone] | > 0.0001 | +++ (IC50>2500 nM) | +++ (IC50>2500 nM) |

Continued, values first:

| IC50 [1] [mM] | CDK2 IC50 range class [2] | CDK9: Selectivity of CDK7 inhibition over CDK9 inhibition [fold] [3] | Structure (SMILES) |
| --- | --- | --- | --- |
| > 0.0001 | +++ (IC50>2500 nM) | +++ (IC50>2500 nM) | COc1cccc([C@H](C)Nc2nc(C(=O)N3CC4(CNC4)C3)nc3c(C(C)C)cnn23)c1 [(XXVI-1), (S)-(8-isopropyl-4-((1-(3-methoxyphenyl)ethyl)amino)pyrazolo[1,5-a][1,3,5]triazin-2-yl)(2,6-diazaspiro[3.3]heptan-2-yl)methanone] |
| > 0.0001 | +++ (IC50>2500 nM) | +++ (IC50>2500 nM) | COc1cccc([C@H](C)Nc2nc(C(=O)N(C)CCN3CCCC3)nc3c(C(C)C)cnn23)c1 [(XXVI-3), (S)-8-isopropyl-4-((1-(3-methoxyphenyl)ethyl)amino)-N-methyl-N-(2-(pyrrolidin-1-yl)ethyl)pyrazolo[1,5-a][1,3,5]triazine-2-carboxamide] |
| > 0.0001 | +++ (IC50>2500 nM) | +++ (IC50>2500 nM) | COc1cccc([C@H](C)Nc2nc(C(=O)NCCCN)nc3c(C(C)C)cnn23)c1 [(XXVI-5), (S)-N-(3-aminopropyl)-8-isopropyl-4-((1-(3-methoxyphenyl)ethyl)amino)pyrazolo[1,5-a][1,3,5]triazine-2-carboxamide] |
